Measured values from patent publication US4931447A, “Cycloalkylamides of (8β)-1-alkyl-6-(substituted) ergolines” (Eli Lilly and Company, priority 1989, dated 1990).
Counter-ions that a name gives are not always drawn. Like-named read-outs stand apart in the source and are kept apart here.

Molecular target: T1, 5HT2 Receptors (Rattus norvegicus, UniProt P14842)
T1 construct: from tissue; host or cells: rat external jugular vein (isolated, male Wistar)
Assay: Apparent antagonist dissociation constant (KB) at 5HT2 receptors, serotonin-induced contraction of isolated rat external jugular vein
Format: cell-based, rat (male Wistar)
Source text: Male Wistar rats (about 150-300 gram weight) were killed and their external jugular veins and thoracic aortas dissected free of connective tissue, cannulated in situ and placed in a modified Krebs' bicarbonate buffer in a suitable tissue bath. Two L-shaped 30-gauge stainless-steel hypodermic needles were inserted in each cannula and the dissected vessels gently pushed onto the needles. One needle was attached with thread to a stationary glass rod and the other to the transducer. [The procedure employed was that described by Hooker, Calkins and Fleisch, Blood Vessels, 14, 1, (1977) for use with circular smooth muscle preparations.]
The modified Krebs' bicarbonate buffer was composed of the following (concentrations in millimoles): sodium chloride, 118.2; potassium chloride, 4.6; calcium chloride dihydrate, 1.6; potassium dihydrogenphosphate, 1.2; magnesium sulfate, 1.2; dextrose, 10.0; sodium bicarbonate, 24.8; and water q.s. to 1000 g. The tissue baths were maintained at 37° C. and were aerated with 95% oxygen: 5% carbon dioxide (v:v). An initial optimum resting force of 1 g and 4 g was applied to the jugular vein and aorta, respectively. Isometric contractions were recorded as changes in grams of force on a Beckman Dynograph with Statham UC-3 transducers and microscale accessory attachment. Tissues were allowed to equilibrate 1 to 2 hours before exposure to drugs. Control responses to serotonin in the jugular vein and to norepinephrine in the aorta were obtained. The vessels were then incubated with appropriate concentrations of the test compound for one hour. Responses to serotonin or to norepinephrine were then repeated in the presence of the test compound. Contraction to serotonin was evaluated in the jugular vein since this tissue produces marked responses to serotonin in the absence of alpha receptors. See Cohen and Wiley, J. Pharm. Exp. Ther., 205, 400 (1978). Alpha receptor antagonist activity was evaluated in the aorta.
Apparent antagonist dissociation constants were determined for each concentration of the test compound according to the following equation: [formula] wherein [B] is the concentration of the antagonist and the dose ratio is the ED50 of the agonist in the presence of the antagonist divided by the control ED50. […] The -log KB values obtained for representative sensitive compounds of this invention and are given below in Table 1. ln the Table, column I provides the Example Number of the compound evaluated in the screen; columns 2-6, the identity of the compound evaluated in the screen when taken with the structure provided; and column 7, the apparent dissociation constant for the test compound.

[1] = rat external jugular vein, antagonism of serotonin contraction, 1 h incubation, 37° C, read-out: 5HT2 -Log KB (apparent dissociation constant) (converted)

T1 sequence (P14842 whole entry): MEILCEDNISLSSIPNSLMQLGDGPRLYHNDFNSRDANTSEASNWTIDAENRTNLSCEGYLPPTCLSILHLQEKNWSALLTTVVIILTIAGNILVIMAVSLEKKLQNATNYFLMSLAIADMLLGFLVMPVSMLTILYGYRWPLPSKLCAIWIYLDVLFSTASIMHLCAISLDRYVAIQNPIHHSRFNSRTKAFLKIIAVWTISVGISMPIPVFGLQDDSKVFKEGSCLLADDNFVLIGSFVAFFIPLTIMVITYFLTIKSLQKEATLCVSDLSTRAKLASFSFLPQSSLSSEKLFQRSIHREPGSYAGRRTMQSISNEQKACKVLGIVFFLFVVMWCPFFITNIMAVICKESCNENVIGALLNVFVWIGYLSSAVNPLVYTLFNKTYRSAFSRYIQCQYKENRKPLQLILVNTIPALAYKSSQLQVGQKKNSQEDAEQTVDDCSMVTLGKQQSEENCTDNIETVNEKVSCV

Compound	Kb [nM]	Kb [1] [nM]
CCCN1C[C@H](C(=O)NC2CCCCC2)C[C@@H]2c3cccc4c3c(cn4C(C)C)C[C@H]21 [Example 3, (8β)-N-Cyclohexyl-1-isopropyl-6-n-propylergoline-8-carboxamide]	0.794	
CC(C)n1cc2c3c(cccc31)[C@H]1C[C@@H](C(=O)NC3CCCCCC3)CN(C)[C@@H]1C2 [Example 12, (8β)-N-Cycloheptyl-1-isopropyl-6-methylergoline-8-carboxamide]	1.05	
CC(C)n1cc2c3c(cccc31)[C@H]1C[C@@H](C(=O)N(C)C3CCCCC3)CN(C)[C@@H]1C2 [Example 2, (8β-N-Cyclohexyl-N-methyl-1-isopropyl-6-methylergoline-8-carboxamide maleate]		1
CCn1cc2c3c(cccc31)[C@H]1C[C@@H](C(=O)N[C@H]3CC[C@@H](OC)CC3)CN(C)[C@@H]1C2 [Example 7, (8β)-cis-N-(4-Methoxycyclohexyl)-1-ethyl-6-methylergoline-8-carboxamide maleate]	0.229	
CO[C@H]1CC[C@@H](NC(=O)[C@@H]2C[C@@H]3c4cccc5c4c(cn5C)C[C@H]3N(C)C2)CC1 [Example 6, (8β)-cis-N-(4-Methoxycyclohexyl)-1,6-dimethylergoline-8-carboxamide maleate]	0.269	
CC(C)n1cc2c3c(cccc31)[C@H]1C[C@@H](C(=O)N[C@H]3CC[C@H](O)CC3)CN(C)[C@@H]1C2 [Example 11, (8β)-trans-N-(4-Hydroxycyclohexyl)-1-isopropyl-methylergoline-8-carboxamide]		6.46
CN1C[C@H](C(=O)NC2CCCCC2)C[C@@H]2c3cccc4c3c(cn4C)C[C@H]21 [Example 8, (8β)-N-Cyclohexyl-1,6-dimethylergoline-8carboxamide]	0.2	
CC(C)n1cc2c3c(cccc31)[C@H]1C[C@@H](C(=O)NC3CCCCC3O)CN(C)[C@@H]1C2 (stereo partly drawn) [Example 14, (8β)-N-(2-Hydroxycyclohexyl)-1-isopropyl-6-methylergoline-8-carboxamide]	0.0275	
CC1CCC(NC(=O)[C@@H]2C[C@@H]3c4cccc5c4c(cn5C(C)C)C[C@H]3N(C)C2)CC1 (stereo partly drawn) [Example 13, (8β)-N-(4-Methylcyclohexyl)-1-isopropyl-6-methylergoline-8-carboxamide]	6.46	
CO[C@H]1CC[C@H](NC(=O)[C@@H]2C[C@@H]3c4cccc5c4c(cn5C(C)C)C[C@H]3N(C)C2)CC1 (relative stereo) [Example 5, (8β)-trans-N-(4-Methoxycyclohexyl)-1-isopropyl-6-methylergoline-8-carboxamide]	0.186	
CCn1cc2c3c(cccc31)[C@H]1C[C@@H](C(=O)NC3CCCCC3)CN(C)[C@@H]1C2 [Example 10, (8β)-N-Cyclohexyl-1-ethyl-6-methylergoline-8-carboxamide]	0.562	
CO[C@H]1CC[C@@H](NC(=O)[C@@H]2C[C@@H]3c4cccc5c4c(cn5C(C)C)C[C@H]3N(C)C2)CC1 [Example 4, (8β)-cis-N-(4-Methoxycyclohexyl)-1-isopropyl-methylergoline-8-carboxamide]		0.186
CC(C)n1cc2c3c(cccc31)[C@H]1C[C@@H](C(=O)NC3CCCC3)CN(C)[C@@H]1C2 [Example 9, (8β)-N-Cyclopentyl-1-isopropyl-6-methylergoline-8-carboxamide]	0.0468	
